Test results published in patent publication US20080248134A1, “Oral compositions, use and combinations of N-[2-(dimethylamino)ethyl]-2,6 dimethyl-1-oxo-1,2-dihydrobenzo[b]-1,6-naphthyridine-4-carboxamide and closely related analogues thereof” (Auckland Uniservices Limited, priority 2005, published 2008).
Entries after “also recorded” stand apart in the source; their conditions may differ. Read-outs that look alike come from different tables or passages of the source.

Columns and labels:
[1] = system: HCT116 human colon carcinoma line, TP53 mutant; assay: In vitro cell survival, clonogenic assay; type: cell-based; details: p53 mutant HCT116, 6 hours exposure
Experimental: (§1) Two HCT116 human colon carcinoma lines, one with TP53 wild type status and one with TP53 mutant status, were exposed to the compound of Formula II for 6 hours. The cells were washed free of drug and surviving cells were measured by clonogenic assay. The concentration for maximal reduction of cell survival was 1% for p53 wild-type cells and 5% for p53 mutant cells. The cytotoxicity of the compound of the present invention was also tested in three Jurkat leukaemia lines, two of which, JLA and JLD, are resistant to topoisomerase inhibitors because of low cellular levels of topoisomerase II.

[2] = system: HCT116 human colon carcinoma line, TP53 wild type; assay: In vitro cell survival, clonogenic assay; type: cell-based; details: p53 wild-type HCT116, 6 hours exposure
Experimental: as §1

[3] = system: p53, p21 and Fas in HCT116 (TP53 wild type); assay: Induction of the p53 pathway, western blotting; type: cell-based, human
Text: The p53 protein is thought to play a major role in the induction of apoptosis in tumour cells (Levine A J. p53, the cellular gatekeeper for growth and division. Cell. 1997. 88(3):323-331). The p53 protein is a transcriptional activator, which acts in response to DNA damage and other stress pathways, and increases expression of proteins such as Fas and p21^WAF1. […] Products were detected by western blotting.

[4] = system: survivin in HCT116 (TP53 wild type); assay: Inhibition of survivin production, western blotting; type: cell-based, human; details: various concentrations, 24 hours
Experimental: Survivin is a protein that is expressed selectively in many types of cancer cells and which is known to be associated with resistance to apoptosis (Zaffaroni N and Daidone M G. Survivin expression and resistance to anticancer treatments: perspectives for new therapeutic interventions. Drug Resistance Updates: Reviews and Commentaries in Antimicrobial and Anticancer Chemotherapy. 2002 5(2):65-72). […] Extracts were prepared, proteins were separated by electrophoresis and survivin expression was determined by western blotting.

[5] = system: colon 38 tumours; assay: Murine colon 38 tumour response; type: in vivo; details: single oral dose (8.9 mg/kg)
Text: The murine colon-38 carcinoma is a transplantable tumour that has been used extensively in drug development programmes to determine the activity of many different drugs (Goldin A et al. Current results of the screening program at the Division of Cancer Treatment, National Cancer Institute. European Journal of Cancer. 1981. 17(2):129-142). The tumour is implanted subcutaneously as 1-mm^3 fragments and allowed to grow (8 days) to a tumour of approximately 3 mm in diameter before administration of test drugs.

[6] = system: H460; assay: Human tumour xenograft; type: in vivo; set-up: key to Activity: Active: NCI Criterion for activity tumour volume T/C ≦ 40%; Inactive: NCI Criterion for activity tumour volume T/C ≦ 40%; details: H460, Lung
Experimental: (§2) The compound of Formula II was evaluated in a number of xenografts using cell lines derived from cervical, endometrial, lung and colon carcinomas, leukaemia and melanoma (Table 3). These studies indicate that the compound according to the present invention has significant activity in xenografts.

[7] = system: HCT116; assay: Human tumour xenograft; type: in vivo; set-up: key to Activity: Active: NCI Criterion for activity tumour volume T/C ≦ 40%; Inactive: NCI Criterion for activity tumour volume T/C ≦ 40%; details: HCT116, Colon
Experimental: as §2

[8] = system: Jurkat LA; assay: Human tumour xenograft; type: in vivo; set-up: key to Activity: Active: NCI Criterion for activity tumour volume T/C ≦ 40%; Inactive: NCI Criterion for activity tumour volume T/C ≦ 40%; details: Leukaemia
Experimental: as §2

[9] = system: NZEN1; assay: Human tumour xenograft; type: in vivo; set-up: key to Activity: Active: NCI Criterion for activity tumour volume T/C ≦ 40%; Inactive: NCI Criterion for activity tumour volume T/C ≦ 40%; details: NZEN1, Endometrium
Experimental: as §2

[10] = system: NZM10; assay: Human tumour xenograft; type: in vivo; set-up: key to Activity: Active: NCI Criterion for activity tumour volume T/C ≦ 40%; Inactive: NCI Criterion for activity tumour volume T/C ≦ 40%; details: NZM10, Melanoma
Experimental: as §2

[11] = system: NZM3; assay: Human tumour xenograft; type: in vivo; set-up: key to Activity: Active: NCI Criterion for activity tumour volume T/C ≦ 40%; Inactive: NCI Criterion for activity tumour volume T/C ≦ 40%; details: NZM3, Melanoma
Experimental: as §2

[12] = system: NZM4; assay: Human tumour xenograft; type: in vivo; set-up: key to Activity: Active: NCI Criterion for activity tumour volume T/C ≦ 40%; Inactive: NCI Criterion for activity tumour volume T/C ≦ 40%; details: NZM4, Melanoma
Experimental: as §2

[13] = system: NZMp2; assay: Human tumour xenograft; type: in vivo; set-up: key to Activity: Active: NCI Criterion for activity tumour volume T/C ≦ 40%; Inactive: NCI Criterion for activity tumour volume T/C ≦ 40%; details: NZMp2, Melanoma
Experimental: as §2

[14] = Plasma pharmacokinetics; type: in vivo, mice; details: for AUC: read-out: area under the plasma concentration-time profile for the first 8 hours (AUC)
Experimental: The plasma pharmacokinetics of the compound of Formula II, were compared following intravenous, intraperitoneal and oral administration at a dose of 8.9 mg/kg (26 μmol/kg). Mice were terminally anaesthetised at various times up to 8 hours after drug administration and blood was taken for preparation of plasma samples. Plasma concentrations of the compound of Formula II were measured by high performance liquid chromatography-mass spectrophometry. The results are shown in FIG. 6, the vertical bars showing the standard deviation of the mean values from three mice per time point.
As expected from the rate of gastric emptying, the initial increase in plasma and liver drug concentrations occur later after oral administration than they do after intravenous or intraperitoneal administration, but the plasma and tissue half-lives are similar.

[15] = intraperitoneal administration, 8.9 mg/kg, mice
[16] = intravenous administration, 8.9 mg/kg, mice

## Cc1cccc2cc3c(=O)n(C)cc(C(=O)NCCN(C)C)c3nc12 [Formula II, N-[2-(dimethylamino)ethyl]-2,6 dimethyl-1-oxo-1,2-dihydrobenzo[b]-1,6-naphthyridine-4-carboxamide]
[1]
  maximal reduction of cell survival: 5%
[2]
  maximal reduction of cell survival: 1%
[3]; 24 hours at higher cell density (approaching confluence)
  induction of p53, p21 and Fas: induced these proteins
[3]; 24 hours exposure
  induction of p53, p21 and Fas: much greater response
[3]; earlier times (4-10 hours)
  induction of p53, p21 and Fas: induced these proteins
[4]
  survivin expression: suppress survivin production
[5]
  response of colon 38 tumours: complete regression; also recorded: single dose cures
[6]
  Activity: Active
[6]; P53 W.T., tumour volume T/C
  % control: 38%
[7]
  Activity: Inactive
[7]; P53 W.T., tumour volume T/C
  % control: 70%
[8]
  Activity: Active
[8]; P53 Null, tumour volume T/C
  % control: 28%
[9]
  Activity: Inactive
[9]; P53 not known, tumour volume T/C
  % control: 50%
[10]
  Activity: Active
[10]; P53 W.T., tumour volume T/C
  % control: 30%
[11]
  Activity: Active
[11]; P53 W.T., tumour volume T/C
  % control: 38%
[12]
  Activity: Inactive
[12]; P53 Mutant, tumour volume T/C
  % control: 90%
[13]
  Activity: Active
[13]; tumour volume T/C
  % control: 22%
[14]; i.p., i.v. and p.o., non tumour bearing mice
  time-concentration profiles (plasma and liver) for the different routes of administration: quite comparable
[14]; [15]
  maximum plasma concentration: 0.57 µM
  time at which maximum plasma concentration achieved: 0.5 h
[14]; [16]
  maximum plasma concentration: 1.24 µM
  time at which maximum plasma concentration achieved: 0.08 h
[14]; mouse, plasma, ip, intraperitoneal administration, 8.9 mg/kg, mice
  AUC: 1630 nM·h
[14]; mouse, plasma, oral, relative to intraperitoneal administration, 8.9 mg/kg, mice, read-out: bioavailability following oral administration
  bioavailability: 63%
[14]; mouse, plasma, all three routes of administration (i.v., i.p., oral), 8.9 mg/kg, mice, read-out: terminal plasma half life (converted)
  half-life: ~3.5 h
[14]; mouse, plasma, intravenous administration, 8.9 mg/kg, mice
  AUC: 1990 nM·h
[14]; mouse, plasma, oral administration, 8.9 mg/kg, mice
  AUC: 1030 nM·h
[14]; oral administration, 8.9 mg/kg (26 μmol/kg), mice
  maximum plasma concentration: 0.27 µM
[14]; oral administration, 8.9 mg/kg, mice
  time at which maximum plasma concentration achieved: 2 h
